# According to ChEMBL document CHEMBL3817755, “Design, synthesis and biological evaluation of indazolepyrimidine based derivatives as anticancer agents with anti-angiogenic and antiproliferative activities” (Medchemcomm, 2016):
# Experiments:
# [1] = Growth inhibition of human HL-60(TB) cells at 10 uM after 48 hrs by SRB assay; assay type: functional; conditions: HL-60, 48 h, read-out: GI
# [2] = Growth inhibition of human RPMI8226 cells at 10 uM after 48 hrs by SRB assay; assay type: functional; conditions: RPMI-8226, 48 h, read-out: GI
# SR [3] = test: Growth inhibition of human SR cells at 10 uM after 48 hrs by SRB assay; assay type: functional; conditions: read-out: GI
# EKVX [4] = test: Growth inhibition of human EKVX cells at 10 uM after 48 hrs by SRB assay; assay type: functional; conditions: read-out: GI
# NCI-H460 = test: Growth inhibition of human NCI-H460 cells at 10 uM after 48 hrs by SRB assay; assay type: functional; conditions: NCI-H460, 48 h, read-out: GI
# [5] = Growth inhibition of human HCT116 cells at 10 uM after 48 hrs by SRB assay; assay type: functional; conditions: HCT-116, 48 h, read-out: GI
# [6] = Growth inhibition of human HCT15 cells at 10 uM after 48 hrs by SRB assay; assay type: functional; conditions: HCT-15, 48 h, read-out: GI
# KM12 = test: Growth inhibition of human KM12 cells at 10 uM after 48 hrs by SRB assay; assay type: functional; conditions: KM12, 48 h, read-out: GI
# [7] = Growth inhibition of human SNB19 cells at 10 uM after 48 hrs by SRB assay; assay type: functional; conditions: SNB-19, 48 h, read-out: GI
# U-251 = test: Growth inhibition of human U251 cells at 10 uM after 48 hrs by SRB assay; assay type: functional; conditions: U-251, 48 h, read-out: GI
# M14 = test: Growth inhibition of human M14 cells at 10 uM after 48 hrs by SRB assay; assay type: functional; conditions: M14, 48 h, read-out: GI
# SK-MEL-28 = test: Growth inhibition of human SK-MEL-28 cells at 10 uM after 48 hrs by SRB assay; assay type: functional; conditions: SK-MEL-28, 48 h, read-out: GI
# [8] = Growth inhibition of human UACC62 cells at 10 uM after 48 hrs by SRB assay; assay type: functional; conditions: UACC-62, 48 h, read-out: GI
# A498 = test: Growth inhibition of human A498 cells at 10 uM after 48 hrs by SRB assay; assay type: functional; conditions: A498, 48 h, read-out: GI
# MDA-MB-231 = test: Growth inhibition of human MDA-MB-231 cells at 10 uM after 48 hrs by SRB assay; assay type: functional; conditions: MDA-MB-231, 48 h, read-out: GI
# T47D = test: Growth inhibition of human T47D cells at 10 uM after 48 hrs by SRB assay; assay type: functional; conditions: read-out: GI
# MDA-MB-468 = test: Growth inhibition of human MDA-MB-468 cells at 10 uM after 48 hrs by SRB assay; assay type: functional; conditions: MDA-MB-468, 48 h, read-out: GI
# CCRF-CEM = test: Growth inhibition of human CCRF-CEM cells after 48 hrs by SRB assay; assay type: functional
# [9] = Growth inhibition of human MOLT4 cells after 48 hrs by SRB assay; assay type: functional; conditions: MOLT-4, 48 h
# [10] = Growth inhibition of human RPMI8226 cells after 48 hrs by SRB assay; assay type: functional; conditions: RPMI-8226, 48 h
# SR [11] = test: Growth inhibition of human SR cells after 48 hrs by SRB assay; assay type: functional
# EKVX [12] = test: Growth inhibition of human EKVX cells after 48 hrs by SRB assay; assay type: functional
# [13] = Growth inhibition of human HOP62 cells after 48 hrs by SRB assay; assay type: functional; conditions: HOP-62, 48 h
# NCI-H226 = test: Growth inhibition of human NCI-H226 cells after 48 hrs by SRB assay; assay type: functional; conditions: NCI-H226, 48 h
# [14] = Growth inhibition of human HCC2998 cells after 48 hrs by SRB assay; assay type: functional; conditions: HCC 2998, 48 h
# [15] = Growth inhibition of human SF268 cells after 48 hrs by SRB assay; assay type: functional; conditions: SF-268, 48 h
# [16] = Growth inhibition of human SF295 cells after 48 hrs by SRB assay; assay type: functional; conditions: SF-295, 48 h
# MDA-MB-435 = test: Growth inhibition of human MDA-MB-435 cells after 48 hrs by SRB assay; assay type: functional; conditions: MDA-MB-435, 48 h
# SK-MEL-5 = test: Growth inhibition of human SK-MEL-5 cells after 48 hrs by SRB assay; assay type: functional; conditions: SK-MEL-5, 48 h
# [17] = Growth inhibition of human OVCAR3 cells after 48 hrs by SRB assay; assay type: functional; conditions: OVCAR-3, 48 h
# [18] = Growth inhibition of human OVCAR4 cells after 48 hrs by SRB assay; assay type: functional; conditions: OVCAR-4, 48 h
# 786-0 = test: Growth inhibition of human 786-0 cells after 48 hrs by SRB assay; assay type: functional; conditions: 786-0, 48 h
# [19] = Growth inhibition of human TK10 cells after 48 hrs by SRB assay; assay type: functional; conditions: TK-10, 48 h
# [20] = Growth inhibition of human Hs 578T cells after 48 hrs by SRB assay; assay type: functional
# [21] = Growth inhibition of human BT549 cells after 48 hrs by SRB assay; assay type: functional; conditions: BT-549, 48 h
# [22] = target: Hepatocyte growth factor receptor (Homo sapiens) (UniProt P08581); test: Inhibition of c-Met (unknown origin) at 10 uM
# Sequence of Hepatocyte growth factor receptor (Homo sapiens) (P08581 whole entry): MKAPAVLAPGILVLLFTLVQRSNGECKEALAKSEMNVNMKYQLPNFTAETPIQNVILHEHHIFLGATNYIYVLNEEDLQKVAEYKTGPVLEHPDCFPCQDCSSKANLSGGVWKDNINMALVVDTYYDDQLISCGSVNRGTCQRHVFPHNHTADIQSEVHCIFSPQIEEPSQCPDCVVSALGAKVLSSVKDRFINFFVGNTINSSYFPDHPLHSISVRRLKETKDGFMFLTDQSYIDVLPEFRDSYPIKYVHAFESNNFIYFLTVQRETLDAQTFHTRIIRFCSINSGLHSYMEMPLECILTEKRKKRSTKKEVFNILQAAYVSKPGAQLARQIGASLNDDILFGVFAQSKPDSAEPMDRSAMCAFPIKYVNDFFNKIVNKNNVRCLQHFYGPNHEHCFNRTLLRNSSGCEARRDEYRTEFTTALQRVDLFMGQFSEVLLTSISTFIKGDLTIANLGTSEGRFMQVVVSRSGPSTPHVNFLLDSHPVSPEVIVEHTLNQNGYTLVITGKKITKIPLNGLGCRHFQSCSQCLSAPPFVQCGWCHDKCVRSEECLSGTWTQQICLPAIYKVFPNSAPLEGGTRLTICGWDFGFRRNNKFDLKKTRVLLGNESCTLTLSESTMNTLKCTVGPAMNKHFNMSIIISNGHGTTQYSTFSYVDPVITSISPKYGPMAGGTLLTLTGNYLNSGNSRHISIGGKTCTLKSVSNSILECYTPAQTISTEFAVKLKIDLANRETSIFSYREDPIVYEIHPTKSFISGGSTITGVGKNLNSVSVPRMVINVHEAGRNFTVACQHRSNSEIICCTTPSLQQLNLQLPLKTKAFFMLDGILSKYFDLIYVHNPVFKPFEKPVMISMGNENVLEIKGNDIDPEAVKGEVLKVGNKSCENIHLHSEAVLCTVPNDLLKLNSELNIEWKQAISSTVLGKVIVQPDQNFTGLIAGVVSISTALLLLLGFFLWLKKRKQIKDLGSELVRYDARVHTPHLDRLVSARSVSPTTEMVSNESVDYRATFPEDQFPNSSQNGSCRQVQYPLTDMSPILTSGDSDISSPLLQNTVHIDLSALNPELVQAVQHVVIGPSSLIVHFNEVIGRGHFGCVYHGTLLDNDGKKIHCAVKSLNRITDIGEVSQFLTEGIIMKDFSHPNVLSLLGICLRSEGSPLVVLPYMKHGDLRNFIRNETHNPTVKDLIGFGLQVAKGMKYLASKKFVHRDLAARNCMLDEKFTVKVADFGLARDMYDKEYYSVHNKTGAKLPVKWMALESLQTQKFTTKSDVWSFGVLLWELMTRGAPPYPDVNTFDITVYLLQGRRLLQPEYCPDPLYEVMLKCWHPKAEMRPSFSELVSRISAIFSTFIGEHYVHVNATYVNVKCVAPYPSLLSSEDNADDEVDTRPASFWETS
# [23] = target: Cyclin-dependent kinase 2 (Homo sapiens) (UniProt P24941); test: Inhibition of CDK-2 (unknown origin) at 10 uM
# [24] = target: Mast/stem cell growth factor receptor Kit (Homo sapiens) (UniProt P10721); test: Inhibition of c-Kit (unknown origin) at 10 uM
# Sequence of Mast/stem cell growth factor receptor Kit (Homo sapiens) (P10721 whole entry): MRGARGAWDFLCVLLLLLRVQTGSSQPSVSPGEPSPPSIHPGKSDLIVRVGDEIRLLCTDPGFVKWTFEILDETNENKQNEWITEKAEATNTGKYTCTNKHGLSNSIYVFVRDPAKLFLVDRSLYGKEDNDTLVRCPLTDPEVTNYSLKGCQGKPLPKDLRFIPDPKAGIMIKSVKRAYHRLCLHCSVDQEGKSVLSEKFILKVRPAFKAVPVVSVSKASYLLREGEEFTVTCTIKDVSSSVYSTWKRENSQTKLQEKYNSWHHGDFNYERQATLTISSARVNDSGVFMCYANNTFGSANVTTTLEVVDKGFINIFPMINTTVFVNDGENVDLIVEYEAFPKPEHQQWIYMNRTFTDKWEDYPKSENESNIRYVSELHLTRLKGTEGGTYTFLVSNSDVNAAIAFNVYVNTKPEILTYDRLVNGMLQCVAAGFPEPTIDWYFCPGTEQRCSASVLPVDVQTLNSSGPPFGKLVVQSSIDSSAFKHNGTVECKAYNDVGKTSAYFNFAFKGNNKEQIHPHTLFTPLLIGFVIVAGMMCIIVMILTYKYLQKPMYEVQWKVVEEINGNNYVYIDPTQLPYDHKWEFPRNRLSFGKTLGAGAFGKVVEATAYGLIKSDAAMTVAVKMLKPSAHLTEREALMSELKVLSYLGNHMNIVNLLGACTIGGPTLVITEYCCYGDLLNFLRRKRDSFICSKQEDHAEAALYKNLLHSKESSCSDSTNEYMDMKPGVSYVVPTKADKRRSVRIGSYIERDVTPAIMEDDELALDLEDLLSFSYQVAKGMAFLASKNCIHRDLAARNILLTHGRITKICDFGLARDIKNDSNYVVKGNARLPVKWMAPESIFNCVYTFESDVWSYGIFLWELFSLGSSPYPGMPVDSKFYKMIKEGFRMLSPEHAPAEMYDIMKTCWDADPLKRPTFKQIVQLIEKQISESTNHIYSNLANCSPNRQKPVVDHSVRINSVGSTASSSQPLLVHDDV
# [25] = read-out: LC50 (the source's name)
smiles,measurement,setting,value
COc1ccc(Nc2nccc(Nc3ccc4[nH]ncc4c3)n2)cc1,inhibition of growth at 10 µM,[1],40%
same,inhibition of growth at 10 µM,[2],97%
same,inhibition of growth at 10 µM,SR [3],96%
same,inhibition of growth at 10 µM,EKVX [4],49%
same,inhibition of growth at 10 µM,NCI-H460,75%
same,inhibition of growth at 10 µM,[5],81%
same,inhibition of growth at 10 µM,[6],94%
same,inhibition of growth at 10 µM,KM12,90%
same,inhibition of growth at 10 µM,[7],40%
same,inhibition of growth at 10 µM,U-251,64%
same,inhibition of growth at 10 µM,M14,67%
same,inhibition of growth at 10 µM,SK-MEL-28,34%
same,inhibition of growth at 10 µM,[8],61%
same,inhibition of growth at 10 µM,A498,63%
same,inhibition of growth at 10 µM,MDA-MB-231,51%
same,inhibition of growth at 10 µM,T47D,104%
same,inhibition of growth at 10 µM,MDA-MB-468,56%
same,GI50,CCRF-CEM,2.61 µM
same,LC50 (concentration for 50% net cell kill),CCRF-CEM,> 100 µM
same,TGI,CCRF-CEM,4.67 µM
same,GI50,[9],1.55 µM
same,LC50,[9],> 100 µM
same,TGI,[9],4.67 µM
same,GI50,[10],1.99 µM
same,LC50,[10],> 100 µM
same,TGI,[10],4.67 µM
same,GI50,SR [11],1.75 µM
same,TGI,SR [11],4.67 µM
same,CC50,SR [11]; [25],> 100 µM
same,GI50,EKVX [12],5 µM
same,TGI,EKVX [12],17.9 µM
same,CC50,EKVX [12]; [25],42.3 µM
same,GI50,[13],2.27 µM
same,LC50,[13],19.4 µM
same,TGI,[13],5.76 µM
same,GI50,NCI-H226,2.3 µM
same,TGI,NCI-H226,5.77 µM
same,CC50,NCI-H226; [25],> 100 µM
same,GI50,[14],2.88 µM
same,TGI,[14],8.05 µM
same,CC50,[14]; [25],27.6 µM
same,GI50,[15],4.2 µM
same,TGI,[15],28.6 µM
same,CC50,[15]; [25],> 100 µM
same,GI50,[16],3.78 µM
same,LC50 (concentration killing 50% of cells),[16],37.1 µM
same,TGI,[16],13.8 µM
same,GI50,MDA-MB-435,2.1 µM
same,LC50,MDA-MB-435,20.1 µM
same,TGI,MDA-MB-435,5.7 µM
same,GI50,SK-MEL-5,2.01 µM
same,TGI,SK-MEL-5,4.75 µM
same,CC50,SK-MEL-5; [25],13.1 µM
same,GI50,[17],3.15 µM
same,TGI,[17],10.6 µM
same,CC50,[17]; [25],44 µM
same,GI50,[18],2.99 µM
same,TGI,[18],11.8 µM
same,CC50,[18]; [25],55.6 µM
same,GI50,786-0,1.74 µM
same,TGI,786-0,4.75 µM
same,CC50,786-0; [25],16.1 µM
same,GI50,[19],2.45 µM
same,TGI,[19],9.55 µM
same,CC50,[19]; [25],31 µM
same,GI50,[20],5.02 µM
same,TGI,[20],> 100 µM
same,CC50,[20]; [25],> 100 µM
same,GI50,[21],3.22 µM
same,TGI,[21],12.1 µM
same,CC50,[21]; [25],34.8 µM
same,inhibition,[22],42%
same,inhibition,[23],71%
same,inhibition,[24],85%
